# Source: patent publication US11026940B2, “Compositions for the mobilization, homing, expansion and differentiation of stem cells and methods of using the same” (Ampio Pharmaceuticals, Inc., priority 2013, dated 2021)
# Where “and” joins values, the source holds several entries; their conditions need not be identical. Equal values may be shown once.
# Experiments:
# Format in all cases: cell-based, human
# Collagen 2A1 = assay: Stem cell chondrogenesis, real time PCR gene expression: Collagen 2A1; conditions: for Cp Coll / Mean regulation: Collagen 2A1; for Cp Coll / Mean regulation / Mean ΔCp / ΔCp: Day 22; for Mean regulation: vs saline; for Mean ΔCp / ΔCp: Collagen 2A1 vs GAPDH; for regulation, Collagen 2A1 / Mean regulation, Collagen 2A1: fold regulation vs saline; for regulation, Collagen 2A1 / ΔCp, Collagen 2A1 / 2^-ΔΔCp vs saline, Collagen 2A1 / ΔΔCp vs saline, Collagen 2A1: single replicate well; for Mean regulation, Collagen 2A1 / Mean ΔCp, Collagen 2A1: triplicate wells; for ΔCp, Collagen 2A1: human bone marrow MSC, chondrogenic medium + TGF beta 3; for ΔCp, Collagen 2A1 / 2^-ΔΔCp vs saline, Collagen 2A1 / ΔΔCp vs saline, Collagen 2A1 / Mean ΔCp, Collagen 2A1: vs Actin
# Experimental: (§1) • Stem Cells: Bone marrow derived human mesenchymal stem cells: Passage 5 Bone marrow derived human mesenchymal stem cells (HUXMA-01001, Cyagen Biosciences, Sunnyvale Calif.) • Mesenchymal Stem Cell Chondrogenic Differentiation medium (GUXMX-90041, Cyagen Biosciences, Sunnyvale Calif.) • TheraPEAK MSCGM chemically defined Stem cell medium (190632 Lonza) • 1 mM Dexamethasone acetate and mifepristone in absolute ethanol (Sigma) • Saline or 0.9% Sodium chloride for injection ZR Flush (Excelsior Medical, Neptune N.J.) • Sterile filtered 0.6 mM sodium caprylate in saline (sigma) • Sterile filtered 3 mM NAT in saline (sigma); To prepare, heat at 60° C. for 30 minutes then sonicate for 5 minutes. • Sterile filtered 10 mM DADKP in saline • 0.2 μM syringe filters • Hepes buffered saline, Trypsin/EDTA, Trypsin neutralizing solution (Lonza reagent pack) • 182 cm2 tissue culture flasks • pipettes and sterile tips • Tissue culture hood, humidified CO2 incubator, water or bead bath • 24 well tissue culture plates • Qiagen RNeasy plus spin columns (Qiagen 74134) • Qiagen RT2 qPCR primer pairs for Collagen 2A1, MMP13, TIMP1, Aggrecan, GAPDH, and Actin B • Roche Sybr green I master mix and Invitrogen Superscript VILO master mix. • Roche 480 lightcycler
# (§2) The following stock drug treatment solutions were prepared in saline for injection and warmed to 37° C. in bath: • 4 μM dexamethasone • 4 μM mifepristone • 3 mM NAT • 0.6 mM caprylate • 80 μM DADKP • Mix of 3 mM NAT, 0.6 mM caprylate, 80 μM DADKP (“Ampion” mix)
# (§3) Cyagen Chondrogenic Differentiation medium was prepared by manufacturer protocols but excluding dexamethasone and TGF beta 3 supplements, and warmed to 37° C. in bath.
# (§4) The treatment protocol included expanding 5 HUXMA stem cells in 182 cm^2 flasks containing 40 mls TheraPEAK™ MSCGM to 80-90% confluence. Cells were trypsinized from the flasks and a 1.0×10^7 cell suspension of HUXMA stem cells was warmed in Cyagen Chondrogenic Differentiation medium. 20 μl of warmed cell suspension was spotted in the middle of each well of a 24-well tissue culture plate (200,000 cells per spot), and incubated at 37° C. and 5% CO2 for one hour.
# (§5) The plates were removed from the incubator and an additional 720 μl chondrogenic medium was added to each well. 250 μl saline, or drug solutions were added to the appropriate wells in triplicate (bringing the final drug dilution to one-quarter of the stock drug treatment solution concentrations). 10 μl of TGF beta 3 solution (supplied by Cyagen) was added to each well, and the plates were returned to the incubator.
# (§6) RNA isolation and analysis was conducted for all plates as follows at days 7, 14, and 22 post treatment (with the described medium exchanges). […] Qiagen RNeasy plus lysis buffer (with 2mercaptoethanol) was added to each well and gently shaken for 10 minutes. The lysed cell suspensions from each well were transferred to Qiashredder columns and spun at 14,000 rpm for 2 minutes. RNA isolation proceeded by RNeasy™ plus manufacturer's protocol. RNA was eluted from the Qiagen columns using 25 μl RNase free water.
# (§7) cDNA synthesis and real time PCR was conducted as follows. First strand synthesis of cDNA from all samples was performed in 20 μl total volume using 10 μl isolated RNA. All cDNA reactions were then diluted with 30 μl nuclease free water. Real time PCR was then performed using 5 μl diluted cDNA, Roche Syber green master mix, and Qiagen RT^2 gPCR™ primer pairs in 20 μl total reaction volume. Relative gene expression was determined by delta deta Ct method.
# MMP13 = assay: Stem cell chondrogenesis, real time PCR gene expression: MMP13; conditions: for Cp Coll / Mean regulation: MMP13; for Cp Coll / Mean regulation / Mean ΔCp / ΔCp: Day 22; for Mean regulation: vs saline; for Mean ΔCp / ΔCp: MMP13 vs GAPDH
# Experimental: as §1, §2, §3, §4, §5, §6, §7
# SOX9 = assay: Stem cell chondrogenesis, real time PCR gene expression: SOX9; conditions: Day 14
# Experimental: The treatment protocol included expanding 5 HUXMA stem cells in 182 cm^2 flasks containing 40 […] to 80-90% confluence. Cells were trypsinized from the flasks and a 1.0×10^7 cell suspension of HUXMA stem cells was warmed in Cyagen Chondrogenic Differentiation medium. 20 μl of warmed cell suspension was spotted in the middle of each well of a 24-well tissue culture plate (200,000 cells per spot), and incubated at 37° C. and 5% CO2 for one hour. […] Medium exchanges were performed every 3-4 days by aspirating the medium from the wells and replacing with fresh chondrogenic medium, diluted stocks, and TGF beta 3, as described above. […] Medium from the wells was removed and saved for further protein analysis. Qiagen RNeasy plus lysis buffer (with 2mercaptoethanol) was added to each well and gently shaken for 10 minutes. The lysed cell suspensions from each well were transferred to Qiashredder columns and spun at 14,000 rpm for 2 minutes. RNA isolation proceeded by RNeasyTM plus manufacturer's protocol. RNA was eluted from the Qiagen columns using 25 μl RNase free water. cDNA synthesis and real time PCR was conducted as follows. First strand synthesis of cDNA from all samples was performed in 20 μl total volume using 10 μl isolated RNA. All cDNA reactions were then diluted with 30 μl nuclease free water. Real time PCR was then performed using 5 μl diluted cDNA, Roche Syber green master mix, and Qiagen RT^2 gPCRTM primer pairs in 20 μl total reaction volume.
# Aggrecan = assay: Stem cell chondrogenesis, real time PCR gene expression: Aggrecan; conditions: Day 22; for Mean ΔCp / ΔCp: Aggrecan vs Actin; for Cp Agg / Mean regulation: Aggrecan; for Mean regulation: vs saline
# Experimental: as §1, §2, §3, §4, §5, §6, §7
# TIMP1 = assay: Stem cell chondrogenesis, real time PCR gene expression: TIMP1; conditions: Day 22; for Mean ΔCp: TIMP1 vs Actin
# Experimental: as §1, §2, §3, §4, §5, §6, §7
# [1] = Day 7, vs Actin, single replicate well
# [2] = vs Actin, single replicate well
structure (smiles),measurement,setting,value
"CCCCCCCC(=O)[O-].[Na+] [Caprylate, sodium caprylate]",Cp Coll,Collagen 2A1; Table 12,22.93 and 25.6 and 24.26
same,Cp Coll,Collagen 2A1; Table 16,22.93 and 25.6 and 24.26
same,Mean regulation,Collagen 2A1; Table 12,101.18
same,Mean regulation,Collagen 2A1; Table 16,101.18
same,Mean ΔCp,Collagen 2A1; Table 12,6.557
same,ΔCp,Collagen 2A1; Table 12,6.08 and 7.19 and 6.4
same,Mean ΔCp,Collagen 2A1; Table 16,6.557
same,ΔCp,Collagen 2A1; Table 16,6.08 and 7.19 and 6.4
same,"regulation, Collagen 2A1",Collagen 2A1; Day 7,1.63 and −1.05 and −1.11
same,"Mean regulation, Collagen 2A1",Collagen 2A1; Day 7,−0.18
same,"ΔCp, Collagen 2A1",Collagen 2A1; Day 7,6.03 and 6.81 and 6.88
same,"2^-ΔΔCp vs saline, Collagen 2A1",Collagen 2A1; Day 7,1.6283 and 0.9482 and 0.9033
same,"ΔΔCp vs saline, Collagen 2A1",Collagen 2A1; Day 7,−0.7 and 0.077 and 0.147
same,"Mean ΔCp, Collagen 2A1",Collagen 2A1; Day 7,6.573
same,"regulation, Collagen 2A1",Collagen 2A1; Day 14,7.19 and 6.95 and 4.28
same,"Mean regulation, Collagen 2A1",Collagen 2A1; Day 14,6.14
same,"ΔCp, Collagen 2A1",Collagen 2A1; Day 14,8.21 and 8.26 and 8.96
same,"2^-ΔΔCp vs saline, Collagen 2A1",Collagen 2A1; Day 14,7.1934 and 6.9483 and 4.2772
same,"ΔΔCp vs saline, Collagen 2A1",Collagen 2A1; Day 14,−2.85 and −2.8 and −2.1
same,"Mean ΔCp, Collagen 2A1",Collagen 2A1; Day 14,8.477
same,"regulation, MMP13","MMP13; Day 7, fold regulation vs saline, single replicate well",−2.63 and 1.03 and −3.06
same,"Mean regulation, MMP13","MMP13; Day 7, fold regulation vs saline, triplicate wells",−1.55
same,"ΔCp, MMP13","MMP13; Day 7, human bone marrow MSC, chondrogenic medium + TGF beta 3, vs Actin, single replicate well",6.03 and 4.59 and 6.25
same,"2^-ΔΔCp vs saline, MMP13",MMP13; [1],0.3807 and 1.0329 and 0.3268
same,"ΔΔCp vs saline, MMP13",MMP13; [1],1.393 and −0.05 and 1.613
same,"Mean ΔCp, MMP13","MMP13; Day 7, vs Actin, triplicate wells",5.623
same,Cp Coll,MMP13; Table 12,20.28 and 20.31 and 20.73
same,Cp Coll,MMP13; Table 16,20.28 and 20.31 and 20.73
same,Mean regulation,MMP13; Table 12,0.62
same,Mean regulation,MMP13; Table 16,0.62
same,Mean ΔCp,MMP13; Table 12,2.733
same,ΔCp,MMP13; Table 12,3.43 and 1.9 and 2.87
same,Mean ΔCp,MMP13; Table 16,2.733
same,ΔCp,MMP13; Table 16,3.43 and 1.9 and 2.87
same,"regulation, SOX9","SOX9; fold regulation vs saline, single replicate well",1.16 and 1.99 and 2.28
same,"Mean regulation, SOX9","SOX9; fold regulation vs saline, triplicate wells",1.81
same,"ΔCp, SOX9","SOX9; human bone marrow MSC, chondrogenic medium + TGF beta 3, vs Actin, single replicate well",6.97 and 6.19 and 5.99
same,"2^-ΔΔCp vs saline, SOX9",SOX9; [2],1.1567 and 1.9862 and 2.2815
same,"ΔΔCp vs saline, SOX9",SOX9; [2],−0.21 and −0.99 and −1.19
same,"Mean ΔCp, SOX9","SOX9; vs Actin, triplicate wells",6.383
same,Mean ΔCp,Aggrecan; Table 12,7.42
same,ΔCp,Aggrecan; Table 12,6.11 and 9.72 and 6.43
same,Mean ΔCp,Aggrecan; Table 16,7.42
same,ΔCp,Aggrecan; Table 16,6.11 and 9.72 and 6.43
same,Cp Agg,Aggrecan; Table 12,21.64 and 25.43 and 21.95
same,Cp Agg,Aggrecan; Table 16,21.64 and 25.43 and 21.95
same,Mean regulation,Aggrecan; Table 12,10.81
same,Mean regulation,Aggrecan; Table 16,10.81
same,Cp TIMP1,"TIMP1; TIMP1, Table 12",17.65 and 18.77 and 19.77
same,Cp TIMP1,"TIMP1; TIMP1, Table 16",17.65 and 18.77 and 19.77
same,Mean regulation,"TIMP1; TIMP1, vs saline, Table 12",1.12
same,Mean ΔCp,TIMP1; Table 12,3.143
same,Mean ΔCp,TIMP1; Table 16,3.143
